Results published in publication PMC10439028, “SGLT5 is the renal transporter for 1,5-anhydroglucitol, a major player in two rare forms of neutropenia” (Cellular and Molecular Life Sciences: CMLS, 2023).

Target: T1, hSGLT5 Asn96Ile (Homo sapiens, UniProt A0PJK1, N96I)
T1 construct: pUB83-hSGLT5-iso2 as well as the various SGLT5 mutants obtained were used to transduce HEK293T cells; expressed in transfected cells; host or cells: HEK293T, lentiviral transduction (pUB83)
T1 sequence (A0PJK1 1-596 N96I): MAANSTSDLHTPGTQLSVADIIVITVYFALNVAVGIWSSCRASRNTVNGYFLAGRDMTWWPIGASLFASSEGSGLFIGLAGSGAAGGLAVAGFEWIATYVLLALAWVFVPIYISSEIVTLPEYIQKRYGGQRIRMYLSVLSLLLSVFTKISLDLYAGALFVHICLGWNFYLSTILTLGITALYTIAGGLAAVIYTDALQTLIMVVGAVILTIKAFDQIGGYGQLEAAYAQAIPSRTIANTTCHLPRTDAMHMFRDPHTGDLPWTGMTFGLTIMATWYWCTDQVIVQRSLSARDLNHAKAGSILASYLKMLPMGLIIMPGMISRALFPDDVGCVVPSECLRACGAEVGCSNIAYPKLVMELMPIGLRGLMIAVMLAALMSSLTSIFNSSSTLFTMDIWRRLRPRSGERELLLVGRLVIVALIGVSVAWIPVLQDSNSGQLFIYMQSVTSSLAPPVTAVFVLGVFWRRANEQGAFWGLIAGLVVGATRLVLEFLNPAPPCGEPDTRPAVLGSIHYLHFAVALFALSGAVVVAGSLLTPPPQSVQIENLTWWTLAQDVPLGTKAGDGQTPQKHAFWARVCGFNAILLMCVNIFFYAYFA
Experiment: 1,5-AG uptake in HEK293T cells overexpressing SGLT5 variant Asn96Ile
Type: cell-based
Protocol: For a typical transporter experiment we proceeded as follows. […] To minimize cell loss during the various washing steps in the radioactive uptake experiments, the wells where the cells were seeded were previously coated with poly- D-lysine, which improved their adhesion to the plastic surface of the wells. For this, each well of the 24-well plates was treated with 200 µl of a 0.01% poly-L-lysine solution for 10 min, washed 3 times with 1 ml of sterilized water and left to dry for 2 h. Only then could the 24-well plates be seeded with the appropriate cell lines and cultured overnight at 37 °C in 5% CO2.
On day two, the radioactive uptake assay could be performed. The cell culture media was removed by aspiration and cells were incubated for 20 min at 37 °C and 5% CO2 with a basal medium (10 mM HEPES, pH 7.4, 1 mM CaCl2, 1 mM MgCl2, 2 mM KCl) containing 140 mM choline chloride to deplete intracellular Na^2+ ions. […]
Once the uptake medium was added to the cells, the plates were incubated at 37 °C in 5% CO2 during the required time. […] In each experiment, the transport activities were calculated after subtracting a “blank” value, corresponding to the radioactivity in the appropriate control cells (HEK293T cells that were stably or transiently transfected with one of the parent plasmids pEF6/MycHisA, pEF6HisB, pUB82 or pUB83 with no inserted cDNA) that were analyzed in parallel. […]

In the case of OC[C@H]1OC[C@H](O)[C@@H](O)[C@@H]1O [1,5-AG, 1,5-anhydroglucitol], the Vmax is reported as 19.5 ± 3 pmol/min/10^5cells and the “reduction of transport efficiency compared to SGLT5” value is reported as “sixfold”.
